Measured values reported in patent publication US11324750B2, “Compositions and methods for the treatment of severe acute respiratory syndrome coronavirus 2 (SARS-CoV-2) infection” (Children's Hospital Medical Center, priority 2020, dated 2022).

Tested on: severe COVID-19 patients
Experiment: Randomized controlled trial, safety: adverse events up to day 28
Format: in vivo, human
Settings: for ALT increase, % patients / ALT increase, n patients / AST increase, % patients / AST increase, n patients / Acute heart failure, n patients / Alkaline phosphatase increase, % patients / Alkaline phosphatase increase, n patients / Anemia, % patients / Anemia, n patients / Chemical laboratory abnormalities, % patients / Chemical laboratory abnormalities, n patients / Decreased appetite, % patients / Decreased appetite, n patients / Dizziness, % patients / Dizziness, n patients / Headache, % patients / Headache, n patients / Hematological adverse events, % patients / Hematological adverse events, n patients / Hypercholesterolemia, % patients / Hypercholesterolemia, n patients / Hypertension, % patients / Hypertension, n patients / Hypertriglyceridemia, n patients / Hypoalbuminemia, % patients / Hypoalbuminemia, n patients / Hypocalcemia, % patients / Hypocalcemia, n patients / Hypochloremia, % patients / Hypochloremia, n patients / Hypokalemia, % patients / Hypokalemia, n patients / Lymphocytopenia, % patients / Lymphocytopenia, n patients / Nausea, % patients / Nausea, n patients / Neutrocytopenia, % patients / Neutrocytopenia, n patients / Rash, % patients / Rash, n patients / Secondary Infection, n patients / Sepsis, n patients / Serious adverse events, n patients / Shock, n patients / Thrombocytopenia, % patients / Thrombocytopenia, n patients / γ-GT increase, % patients / γ-GT increase, n patients / Adverse events, % patients / Adverse events, n patients: N = 20, through day 28; for Adverse events, % patients / Adverse events, n patients: line above headache, dizziness, rash, nausea, decreased appetite, hypertension
Description: As of the effective date of this application, no therapeutics have yet been proven effective for the treatment of severe COVID-19 with cytokine storm. Ruxolitinib, a potent and selective oral inhibitor of Janus kinase (JAK) 1 and JAK2, was proposed by Applicant to be beneficial in the treatment of cytokine storm. Applicant conducted a prospective, multicenter, single-blind, randomized controlled trial involving participants diagnosed as severe COVID-19 patients. The enrolled patients were randomly separated into two groups with a 1:1 allocation by an independent statistician in blocks of 4 for all 3 sites. Study number and treatment allocation codes were provided in sequentially numbered opaque envelops. Intervention group is treated with ongoing oral intake 5 mg of ruxolitinib (Jakafi®, Novartis Pharma Stein AG, Switzerland) twice a day based on the standard-of-care (SoC); the control group is treated with placebo plus SoC. The primary endpoint was the incidence of serious adverse events occurring up to 28 days and the time to clinical improvement. The secondary endpoint is the overall mortality at D28. This trial is registered at www.chictr.org.cn as ChiCTR-OPN-2000029580.
Procedures. The first day of randomization was designated as D0. The second and the fourth day after randomization were designated D1 and D3, respectively. Dx referred to the day when either disease progressed according to the Chinese management guideline for COVID-19 (version 5.0) or defined as a one-category increase on the seven-category scale. Dend was the day before discharge. The enrolled patients were randomly separated into two groups: the treatment group (group B) received oral intake of ruxolitinib (Jakafi®, Novartis Pharma Stein AG, Switzerland) 5 mg twice a day plus standard-of-care (SoC); the control group (group A) is treated with placebo twice a day with SoC. The SoC included supplemental oxygen, noninvasive and invasive ventilation, corticosteroid, antibiotic agents, vasopressor support, renal-replacement therapy, and extracorporeal membrane oxygenation (ECMO) etc. Safety was monitored daily by two independent senior physicians from the trial center. Adverse events were classified according to the National Cancer Institute Common Terminology Criteria for Adverse Events, version 5.0. Non-contrast enhanced chest CT examinations were performed on D0 and followed-up at least once within two weeks. Additional chest CT may be performed if the condition deteriorated. All CT images were reviewed using Picture archiving and communication system (PACS). The CT features of improvement were evaluated by two independent senior radiologists blindly, which should at least meet one of the following criteria: decreased presence of ground-glass opacities (GGO), decreased lung opacification, reduced density of consolidation or decreased pleural effusion with existence of fibrous stripes^29. Peripheral blood was taken from patients on D1, D3, Dx and/or Dend for the determination of viral load by one-step RT-ddPCR, SARS-CoV-2-specific IgM and IgG by paramagnetic particle chemiluminescent immunoassay (CLIA) and cytokines measurements by Luminex FlEXMAP 3D system. Every participant's data is filled in one case record form (CRF). All the CRF tables were inputted and saved by researchers into an electronic data capture system (EDCS) and validated by a trial staff, including demographics, medical history, daily clinical findings, oximetric measurements and laboratory data involving complete blood count, serum biochemical parameters and high sensitivity C-reactive protein (hsCRP) etc.
Outcomes. The primary safety endpoint was the incidence of serious adverse events occurring up to 28 days. Safety outcomes included adverse events that occurred during treatment, serious adverse events and premature discontinuation of treatment. […]

[1] = Grade 3-4, listed as ruxolitinib

N#CC[C@H](C1CCCC1)n1cc(-c2ncnc3[nH]ccc23)cn1 [Ruxolitinib, (3R)-3-cyclopentyl-3-[4-(7H-pyrrolo[2,3-d]pyrimidin-4-yl)pyrazol-1-yl]propanenitrile]
ALT increase, % patients (Any Grade): (35.0%) | ALT increase, n patients (Any Grade): 7 | AST increase, % patients (Any Grade): (15.0%) | AST increase, n patients (Any Grade): 3 | Acute heart failure, n patients (Any Grade): 0 | Alkaline phosphatase increase, % patients (Any Grade): (10.0%) | Alkaline phosphatase increase, n patients (Any Grade): 2 | Anemia, % patients (Any Grade): (55.0%) | Anemia, n patients (Any Grade): 11 | Chemical laboratory abnormalities, % patients (Any Grade): (50.0%) | Chemical laboratory abnormalities, n patients (Any Grade): 10 | Decreased appetite, % patients (Any Grade): (5.0%) | Decreased appetite, n patients (Any Grade): 1 | Dizziness, % patients (Any Grade): (10.0%) | Dizziness, n patients (Any Grade): 2 | Headache, % patients (Any Grade): (5.0%) | Headache, n patients (Any Grade): 1 | Hematological adverse events, % patients (Any Grade): (65.0%) | Hematological adverse events, n patients (Any Grade): 13 | Hypercholesterolemia, % patients (Any Grade): (20.0%) | Hypercholesterolemia, n patients (Any Grade): 4 | Hypertension, % patients (Any Grade): (5.0%) | Hypertension, n patients (Any Grade): 1 | Hypertriglyceridemia, n patients (Any Grade): 0 | Hypoalbuminemia, % patients (Any Grade): (5.0%) | Hypoalbuminemia, n patients (Any Grade): 1 | Hypocalcemia, % patients (Any Grade): (5.0%) | Hypocalcemia, n patients (Any Grade): 1 | Hypochloremia, % patients (Any Grade): (5.0%) | Hypochloremia, n patients (Any Grade): 1 | Hypokalemia, % patients (Any Grade): (5.0%) | Hypokalemia, n patients (Any Grade): 1 | Lymphocytopenia, % patients (Any Grade): (5.0%) | Lymphocytopenia, n patients (Any Grade): 1 | Nausea, % patients (Any Grade): (10.0%) | Nausea, n patients (Any Grade): 2 | Neutrocytopenia, % patients (Any Grade): (5.0%) | Neutrocytopenia, n patients (Any Grade): 1 | Rash, % patients (Any Grade): (10.0%) | Rash, n patients (Any Grade): 2 | Secondary Infection, n patients (Any Grade): 0 | Sepsis, n patients (Any Grade): 0 | Serious adverse events, n patients (Any Grade): 0 | Shock, n patients (Any Grade): 0 | Thrombocytopenia, % patients (Any Grade): (20.0%) | Thrombocytopenia, n patients (Any Grade): 4 | γ-GT increase, % patients (Any Grade): (10.0%) | γ-GT increase, n patients (Any Grade): 2 | Adverse events, % patients (Any Grade): (35.0%) | Adverse events, n patients (Any Grade): 7 | ALT increase, % patients (Grade 1-2): (35.0%) | ALT increase, n patients (Grade 1-2): 7 | AST increase, % patients (Grade 1-2): (15.0%) | AST increase, n patients (Grade 1-2): 3 | Acute heart failure, n patients (Grade 1-2): 0 | Alkaline phosphatase increase, % patients (Grade 1-2): (10.0%) | Alkaline phosphatase increase, n patients (Grade 1-2): 2 | Anemia, % patients (Grade 1-2): (55.0%) | Anemia, n patients (Grade 1-2): 11 | Chemical laboratory abnormalities, % patients (Grade 1-2): (50.0%) | Chemical laboratory abnormalities, n patients (Grade 1-2): 10 | Decreased appetite, % patients (Grade 1-2): (5.0%) | Decreased appetite, n patients (Grade 1-2): 1 | Dizziness, % patients (Grade 1-2): (10.0%) | Dizziness, n patients (Grade 1-2): 2 | Headache, % patients (Grade 1-2): (5.0%) | Headache, n patients (Grade 1-2): 1 | Hematological adverse events, % patients (Grade 1-2): (60.0%) | Hematological adverse events, n patients (Grade 1-2): 12 | Hypercholesterolemia, % patients (Grade 1-2): (20.0%) | Hypercholesterolemia, n patients (Grade 1-2): 4 | Hypertension, n patients (Grade 1-2): 0 | Hypertriglyceridemia, n patients (Grade 1-2): 0 | Hypoalbuminemia, % patients (Grade 1-2): (5.0%) | Hypoalbuminemia, n patients (Grade 1-2): 1 | Hypocalcemia, % patients (Grade 1-2): (5.0%) | Hypocalcemia, n patients (Grade 1-2): 1 | Hypochloremia, % patients (Grade 1-2): (5.0%) | Hypochloremia, n patients (Grade 1-2): 1 | Hypokalemia, % patients (Grade 1-2): (5.0%) | Hypokalemia, n patients (Grade 1-2): 1 | Lymphocytopenia, % patients (Grade 1-2): (5.0%) | Lymphocytopenia, n patients (Grade 1-2): 1 | Nausea, % patients (Grade 1-2): (10.0%) | Nausea, n patients (Grade 1-2): 2 | Neutrocytopenia, % patients (Grade 1-2): (5.0%) | Neutrocytopenia, n patients (Grade 1-2): 1 | Rash, % patients (Grade 1-2): (10.0%) | Rash, n patients (Grade 1-2): 2 | Secondary Infection, n patients (Grade 1-2): 0 | Sepsis, n patients (Grade 1-2): 0 | Serious adverse events, n patients (Grade 1-2): 0 | Shock, n patients (Grade 1-2): 0 | Thrombocytopenia, % patients (Grade 1-2): (20.0%) | Thrombocytopenia, n patients (Grade 1-2): 4 | γ-GT increase, % patients (Grade 1-2): (10.0%) | γ-GT increase, n patients (Grade 1-2): 2 | Adverse events, % patients (Grade 1-2): (35.0%) | Adverse events, n patients (Grade 1-2): 7 | ALT increase, n patients (Grade 3-4): 0 | AST increase, n patients (Grade 3-4): 0 | Acute heart failure, n patients (Grade 3-4): 0 | Alkaline phosphatase increase, n patients (Grade 3-4): 0 | Anemia, n patients (Grade 3-4): 0 | Chemical laboratory abnormalities, n patients (Grade 3-4): 0 | Decreased appetite, n patients (Grade 3-4): 0 | Dizziness, n patients (Grade 3-4): 0 | Headache, n patients (Grade 3-4): 0 | Hematological adverse events, % patients (Grade 3-4): 5.0% | Hematological adverse events, n patients (Grade 3-4): 1 | Hypercholesterolemia, n patients (Grade 3-4): 0 | Hypertension, % patients (Grade 3-4): 5.0% | Hypertension, n patients (Grade 3-4): 1 | Hypertriglyceridemia, n patients (Grade 3-4): 0 | Hypoalbuminemia, n patients (Grade 3-4): 0 | Hypocalcemia, n patients (Grade 3-4): 0 | Hypochloremia, n patients (Grade 3-4): 0 | Hypokalemia, n patients (Grade 3-4): 0 | Lymphocytopenia, % patients (Grade 3-4): 5.0% | Lymphocytopenia, n patients (Grade 3-4): 1 | Nausea, n patients (Grade 3-4): 0 | Neutrocytopenia, n patients (Grade 3-4): 0 | Rash, n patients (Grade 3-4): 0 | Secondary Infection, n patients (Grade 3-4): 0 | Sepsis, n patients (Grade 3-4): 0 | Serious adverse events, n patients (Grade 3-4): 0 | Shock, n patients (Grade 3-4): 0 | Thrombocytopenia, n patients (Grade 3-4): 0 | γ-GT increase, n patients (Grade 3-4): 0 | Hematological adverse events, n patients [1]: 2 | Hypertension, n patients [1]: One | Adverse events, n patients (Grade 3-4): 0 | Adverse events at grade 3-4, number of events (all ruxolitinib recipients, lymphocytopenia and hypertension, transient and reversible): two | Patients who reported adverse events, % (from randomization to D28, primary safety endpoint): 80% | Unexpected adverse events (primary safety endpoint): No significant unexpected adverse events | Tolerability (ruxolitinib with SoC treatment): well tolerated
